Source: paper PMC7689250, “Synthetic Peptide Libraries Designed From a Minimal Alpha-Helical Domain of AS-48-Bacteriocin Homologs Exhibit Potent Antibacterial Activity” (Frontiers in Microbiology, 2020)
Read-outs that look alike come from different tables or passages of the source. Residues, ends and D or L forms follow the SMILES beside them.

Assays:
S. pyogenes (M1) = assay type: cell-based, Streptococcus pyogenes; details: for MBC: M1; for MIC: M1, 16 h
Outline: (§1)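 MIC in Mueller-Hinton broth with 1 × 10^6 CFU/mL bacteria, overnight cultures grown first in LB (E. coli, P. aeruginosa, S. aureus) or Todd-Hewitt (S. pyogenes); growth read as OD 600. Library members screened at half the parent peptide MIC; MBC as lowest concentration giving no colonies after plating MIC wells, 37°C overnight.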

P. aeruginosa (PAO1) = assay type: cell-based, Pseudomonas aeruginosa; details: for MBC: PAO1; for MIC: PAO1, 16 h
Outline: as §1

S. aureus (USA300) = assay type: cell-based, Staphylococcus aureus; details: for MBC: USA300; for MIC: USA300, 16 h
Outline: as §1

sheep erythrocytes = assay type: cell-based; details: red cells of sheep, 1 h
Method: To determine if peptide variants were hemolytic, fresh defibrinated whole sheep blood (Hardy Diagnostics) was washed three times in cold PBS, and washed blood was diluted 1:25 in PBS. Treatments were applied at a 1:10 ratio of sample:blood, where the sample was either 10% Triton, PBS, or a specific peptide concentration corresponding to concentrations used in the MIC assays. Treatments were incubated with the blood for 1 h at 37°C. Following incubation, samples were centrifuged at […] for 10 min at 4°C, and the absorbance of the supernatants at 450 nm was measured on the Synergy H1 Microplate Reader to measure the release of hemoglobin. Percent hemolysis was quantified by normalizing to the negative and positive controls.

E. coli (BL21) = assay type: cell-based, Escherichia coli
Outline: as §1

| Structure (SMILES) | MBC (S. pyogenes (M1)) [µM] | MIC (S. pyogenes (M1)) [µM] | MBC (P. aeruginosa (PAO1)) [µM] | MIC (P. aeruginosa (PAO1)) [µM] | MBC (S. aureus (USA300)) [µM] | MIC (S. aureus (USA300)) [µM] | Percent Hemolysis (sheep erythrocytes) [%] | MBC (E. coli (BL21); BL21) [µM] | MIC (E. coli (BL21); E. coli BL21) [µM] | MBC (E. coli (BL21); E. coli BL21) [µM] | MIC (E. coli (BL21); BL21, 16 h) [µM] |
| --- | --- | --- | --- | --- | --- | --- | --- | --- | --- | --- | --- |
| CC[C@H](C)[C@H](NC(=O)[C@H](CCCNC(=N)N)NC(=O)[C@H](CC(N)=O)NC(=O)[C@@H](NC(=O)CNC(=O)[C@H](C)N)[C@@H](C)O)C(=O)N[C@@H](C)C(=O)N[C@@H](CCCCN)C(=O)N[C@@H](CCC(=O)O)C(=O)N[C@@H](CC(C)C)C(=O)N[C@@H](CCCNC(=N)N)C(=O)N[C@@H](CCCNC(=N)N)C(=O)N[C@@H](Cc1ccc(O)cc1)C(=O)N[C@H](C(=O)N[C@@H](CCCNC(=N)N)C(=O)N[C@@H](CCCCN)C(=O)N[C@H](C(=O)NCC(=O)N[C@@H](CCCNC(=N)N)C(=O)N[C@H](C(=O)N[C@@H](CCCCN)C(=O)N[C@@H](CCCNC(=N)N)C(=O)N[C@@H](CCCCN)C(=O)N[C@@H](C)C(=O)N[C@@H](Cc1c[nH]c2ccccc12)C(=O)O)[C@@H](C)CC)C(C)C)[C@@H](C)CC [Syn-sordellicin-80] (H-AGTNRIAKELRRYIRKVGRIKRKAW-OH; N-terminus and C-terminus assumed) | 2 | 2 | 16 | 16 | 64 | 64 | 11.3 | 0.5 | 0.25 | – | – |
| CC[C@H](C)[C@H](NC(=O)[C@H](CCCNC(=N)N)NC(=O)CNC(=O)[C@@H](NC(=O)[C@H](CCCCN)NC(=O)[C@H](CCCNC(=N)N)NC(=O)[C@@H](NC(=O)[C@H](Cc1ccc(O)cc1)NC(=O)[C@H](CCCNC(=N)N)NC(=O)[C@H](CCCNC(=N)N)NC(=O)[C@H](CC(C)C)NC(=O)[C@H](CCC(=O)O)NC(=O)[C@H](CCCCN)NC(=O)[C@H](C)NC(=O)[C@@H](NC(=O)[C@H](CCCNC(=N)N)NC(=O)[C@H](CC(N)=O)NC(=O)[C@@H](NC(=O)[C@H](CCCCN)NC(=O)[C@H](C)N)[C@@H](C)O)[C@@H](C)CC)[C@@H](C)CC)C(C)C)C(=O)N[C@@H](C)C(=O)N[C@@H](CCCNC(=N)N)C(=O)N[C@@H](CCCCN)C(=O)N[C@@H](C)C(=O)N[C@@H](Cc1c[nH]c2ccccc12)C(=O)O [Syn-sordellicin-96] (H-AKTNRIAKELRRYIRKVGRIARKAW-OH; N-terminus and C-terminus assumed) | 0.5 | 0.5 | 16 | 8 | 32 | 32 | 14.6 | – | 0.25 | 0.25 | – |
| CC[C@H](C)[C@H](NC(=O)[C@H](Cc1ccccc1)NC(=O)[C@H](C)NC(=O)[C@H](CCCCN)NC(=O)[C@H](CCCCN)NC(=O)[C@H](Cc1c[nH]c2ccccc12)NC(=O)[C@H](CCCNC(=N)N)NC(=O)[C@H](CCCCN)NC(=O)[C@H](CCCNC(=N)N)NC(=O)[C@H](CC(C)C)NC(=O)[C@H](CCC(=O)O)NC(=O)[C@H](CCC(=O)O)NC(=O)[C@H](CC(C)C)NC(=O)[C@H](CC(C)C)NC(=O)[C@H](Cc1ccc(O)cc1)NC(=O)[C@H](CCCCN)NC(=O)[C@@H](NC(=O)[C@H](CC(C)C)NC(=O)[C@H](C)NC(=O)[C@H](CCC(N)=O)NC(=O)[C@H](CCCNC(=N)N)NC(=O)CNC(=O)[C@H](C)N)[C@@H](C)O)C(=O)N[C@@H](C)C(=O)N[C@@H](Cc1c[nH]c2ccccc12)C(=O)O [Syn-xiamencin-20] (H-AGRQALTKYLLEELRKRWKKAFIAW-OH; N-terminus and C-terminus assumed) | 2 | 2 | 64 | 64 | 32 | 32 | 10.5 | 1 | – | – | 1 |
| CC[C@H](C)[C@H](NC(=O)[C@H](Cc1ccccc1)NC(=O)[C@H](C)NC(=O)[C@H](CCCCN)NC(=O)[C@H](CCCCN)NC(=O)CNC(=O)[C@H](CCCNC(=N)N)NC(=O)[C@H](CCCCN)NC(=O)[C@H](CCCNC(=N)N)NC(=O)[C@H](CC(C)C)NC(=O)[C@H](CCC(=O)O)NC(=O)[C@H](CCC(=O)O)NC(=O)[C@H](CCCCN)NC(=O)[C@H](CC(C)C)NC(=O)[C@H](Cc1ccc(O)cc1)NC(=O)[C@H](CC(C)C)NC(=O)[C@@H](NC(=O)[C@H](CC(C)C)NC(=O)[C@H](C)NC(=O)[C@H](CCC(N)=O)NC(=O)[C@H](CCCNC(=N)N)NC(=O)CNC(=O)[C@H](C)N)[C@@H](C)O)C(=O)N[C@@H](Cc1c[nH]c2ccccc12)C(=O)N[C@@H](Cc1c[nH]c2ccccc12)C(=O)O [Syn-xiamencin-57] (H-AGRQALTLYLKEELRKRGKKAFIWW-OH; N-terminus and C-terminus assumed) | 8 | 4 | >128 | >128 | 32 | 16 | 17.0 | 16 | – | – | 16 |
| CC[C@H](C)[C@H](NC(=O)[C@H](Cc1ccccc1)NC(=O)[C@H](C)NC(=O)[C@H](CCCCN)NC(=O)[C@H](CCCCN)NC(=O)CNC(=O)[C@H](CCCNC(=N)N)NC(=O)[C@H](CCCCN)NC(=O)[C@H](CCCNC(=N)N)NC(=O)[C@H](CC(C)C)NC(=O)[C@H](CCC(=O)O)NC(=O)[C@H](CCC(=O)O)NC(=O)[C@H](CC(C)C)NC(=O)[C@H](CC(C)C)NC(=O)[C@H](Cc1ccc(O)cc1)NC(=O)[C@H](CCCCN)NC(=O)[C@@H](NC(=O)[C@H](CC(C)C)NC(=O)[C@H](C)NC(=O)[C@H](CCC(N)=O)NC(=O)[C@H](CCCNC(=N)N)NC(=O)CNC(=O)[C@H](C)N)[C@@H](C)O)C(=O)N[C@@H](Cc1c[nH]c2ccccc12)C(=O)N[C@@H](Cc1c[nH]c2ccccc12)C(=O)O [Syn-xiamencin-60] (H-AGRQALTKYLLEELRKRGKKAFIWW-OH; N-terminus and C-terminus assumed) | 4 | 2 | >128 | >128 | >128 | >128 | 10.9 | 8 | – | – | 4 |
| CC[C@H](C)[C@H](NC(=O)[C@H](Cc1ccccc1)NC(=O)[C@H](C)NC(=O)[C@H](CCCCN)NC(=O)[C@H](CCCCN)NC(=O)CNC(=O)[C@H](CCCNC(=N)N)NC(=O)[C@H](CCCCN)NC(=O)[C@H](CCCNC(=N)N)NC(=O)[C@H](CC(C)C)NC(=O)[C@H](Cc1ccc(O)cc1)NC(=O)[C@H](CCC(=O)O)NC(=O)[C@H](CCCCN)NC(=O)[C@H](CC(C)C)NC(=O)[C@H](CCC(=O)O)NC(=O)[C@H](CC(C)C)NC(=O)[C@@H](NC(=O)[C@H](CC(C)C)NC(=O)[C@H](CCCCN)NC(=O)[C@H](CCC(N)=O)NC(=O)[C@H](CCCNC(=N)N)NC(=O)CNC(=O)[C@H](C)N)[C@@H](C)O)C(=O)N[C@@H](C)C(=O)N[C@@H](Cc1c[nH]c2ccccc12)C(=O)O [Syn-xiamencin-83] (H-AGRQKLTLELKEYLRKRGKKAFIAW-OH; N-terminus and C-terminus assumed) | 4 | 4 | >128 | 128 | >128 | >128 | 10.7 | 32 | – | – | 16 |
